According to PMC11347161, “Sequence diversity of apidaecin-like peptides arresting the terminating ribosome” (Nucleic Acids Research, 2024):
Converted amounts (≈) assume the structure as drawn. Residues, ends and D or L forms follow the SMILES beside them. *: point of attachment. Orn(α-tetramethylguanidino) = CN(C)C(=N[C@@H](CCCN)C(=O)*)N(C)C

Tested on: E. coli, BL21 cells
Type: cell-based
Conditions: for MIC, TSB / MIC, LB / MIC, RPMI/Serum: E. coli BL21, broth microdilution, conducted in triplicate; for MIC, TSB: 33% TSB medium; for MIC, LB: LB medium; for MIC, RPMI/Serum: RPMI/Serum medium (RPMI-1640:MHB:FBS = 100:5:20)
Protocol: The E. coli strain CA244 (lacZ125(Am), e14-, trpA49(Am), relA1, spoT1) was obtained from Escherichia coli Genetic Stock Center. The E. coli BL21(DE3) electrocompetent cells were from Sigma. The following media and components were implemented for bacteria growth: lysogeny broth (LB), minimal M9 medium, Tryptic Soy Broth (TSB), Roswell Park Memorial Institute medium 1640 (RPMI-1640), Mueller Hinton Broth (MHB), Fetal Bovine Serum (FBS). For various experiments E. coli cells were grown either in LB, in 33% TSB ([21]), in M9 medium supplemented with 1% Glycerol, 1 mM MgSO4, 0.1 mM CaCl2 and 10 μg/ml thiamine, or in RPMI/Serum (RPMI-1640:MHB:FBS = 100:5:20) ([23]).
The minimal inhibitory concentration (MIC) test was performed using the broth microdilution method, adapted from the previously described procedure ([28]). The MIC tests were conducted in triplicate either in LB, 33% TSB or RPMI/Serum media.
In order to quantitatively assess the antimicrobial activity of the synthesized peptides identified by both, the negative and positive selection strategies, we determined their minimal inhibitory concentrations (MICs) for the E. coli BL21 cells in three different media: LB, as a standard laboratory medium, 33% TSB, as a medium in which PrAMPs show increased antibacterial properties ([21]), and in the more therapeutically relevant RPMI/serum media ([23]) (Table 1). […] It appears, therefore, that the positive selection strategy is more prone to identifying biologically active peptides in comparison with the negative selection approaches. Furthermore, it became apparent that some multiple substitutions can even improve the antibacterial properties of the Api-like peptides.

For `CC[C@H](C)[C@H](NC(=O)[C@H](Cc1ccc(O)cc1)NC(=O)[C@@H](NC(=O)[C@@H]1CCCN1C(=O)[C@H](CCCNC(=N)N)NC(=O)[C@H](CC(N)=O)NC(=O)[C@H](CC(N)=O)NC(=O)[C@H](CCCN)N=C(N(C)C)N(C)C)C(C)C)C(=O)N1CCC[C@H]1C(=O)N[C@@H](CCCNC(=N)N)C(=O)N1CCC[C@H]1C(=O)N[C@@H](CCCNC(=N)N)C(=O)N1CCC[C@H]1C(=O)N1CCC[C@H]1C(=O)N[C@@H](Cc1c[nH]cn1)C(=O)N1CCC[C@H]1C(=O)N[C@@H](CCCNC(=N)N)C(=O)N[C@@H](CC(C)C)C(=O)O` [Api 137, reference compound] ({Orn(α-tetramethylguanidino)}-NNRPVYIPRPRPPHPRL-OH; N-terminus and C-terminus assumed), the “MIC, TSB” value was 0.25 µM (≈ 0.573 µg/mL), the “MIC, LB” value was 4 µM (≈ 9.17 µg/mL) and the “MIC, RPMI/Serum” value was 0.0625 µM (≈ 0.143 µg/mL).

In the case of `CC(C)C[C@H](NC(=O)[C@H](CCCNC(=N)N)NC(=O)[C@@H]1CCCN1C(=O)[C@H](Cc1c[nH]cn1)NC(=O)[C@H](Cc1ccc(O)cc1)NC(=O)[C@@H]1CCCN1C(=O)[C@H](CCCNC(=N)N)NC(=O)[C@@H]1CCCN1C(=O)[C@@H](NC(=O)[C@H](CS)NC(=O)[C@H](Cc1c[nH]c2ccccc12)NC(=O)[C@H](CCC(N)=O)NC(=O)[C@@H](NC(=O)[C@H](CCCCN)NC(=O)[C@H](CCCNC(=N)N)NC(=O)[C@H](CC(N)=O)NC(=O)[C@H](CC(N)=O)NC(=O)[C@H](CCCN)N=C(N(C)C)N(C)C)C(C)C)C(C)C)C(=O)O` [K5Q7W8C9V10Y14] ({Orn(α-tetramethylguanidino)}-NNRKVQWCVPRPYHPRL-OH; C-terminus assumed), the “MIC, TSB” value is reported as >64 µM, the “MIC, LB” value is reported as >64 µM and the “MIC, RPMI/Serum” value is reported as >64 µM.

In the case of `CC(C)C[C@H](NC(=O)[C@@H]1CCCN1C(=O)[C@H](CCC(N)=O)NC(=O)[C@@H]1CCCN1C(=O)[C@H](CC(C)C)NC(=O)[C@H](Cc1ccc(O)cc1)NC(=O)[C@@H](NC(=O)[C@@H]1CCCN1C(=O)[C@H](CCCNC(=N)N)NC(=O)[C@H](CC(N)=O)NC(=O)[C@H](CC(N)=O)NC(=O)[C@H](CCCN)N=C(N(C)C)N(C)C)C(C)C)C(=O)NCC(=O)N1CCC[C@H]1C(=O)NCC(=O)N1CCC[C@H]1C(=O)N[C@@H](CCCNC(=N)N)C(=O)N[C@@H](C)C(=O)O` [L8L12G13G15A18] ({Orn(α-tetramethylguanidino)}-NNRPVYLPQPLGPGPRA-OH; C-terminus assumed), the “MIC, TSB” value is reported as >64 µM, the “MIC, LB” value is reported as >64 µM and the “MIC, RPMI/Serum” value is reported as >64 µM.

With `CSCC[C@H](NC(=O)[C@H](CCCNC(=N)N)NC(=O)[C@@H]1CCCN1C(=O)[C@H](Cc1ccc(O)cc1)NC(=O)[C@@H]1CCCN1C(=O)[C@H](Cc1ccccc1)NC(=O)[C@H](Cc1ccc(O)cc1)NC(=O)[C@@H](NC(=O)[C@@H]1CCCN1C(=O)[C@H](CCCNC(=N)N)NC(=O)[C@H](C)NC(=O)[C@H](CC(N)=O)NC(=O)[C@H](CCCN)N=C(N(C)C)N(C)C)C(C)C)C(=O)N1CCC[C@H]1C(=O)N[C@@H](Cc1c[nH]cn1)C(=O)N1CCC[C@H]1C(=O)N[C@@H](CCCNC(=N)N)C(=O)N[C@@H](CC(C)C)C(=O)O` [Peptide A3F8Y10M13] ({Orn(α-tetramethylguanidino)}-NARPVYFPYPRMPHPRL-OH; C-terminus assumed) the “MIC, TSB” value was 16 µM (≈ 37.2 µg/mL), the “MIC, LB” value was >64 µM and the “MIC, RPMI/Serum” value was 8 µM (≈ 18.6 µg/mL).

In the case of `CC[C@H](C)[C@H](NC(=O)[C@H](Cc1ccc(O)cc1)NC(=O)[C@@H](NC(=O)[C@@H]1CCCN1C(=O)[C@H](CCCNC(=N)N)NC(=O)[C@H](CC(N)=O)NC(=O)[C@H](CC(N)=O)NC(=O)[C@H](CCCN)N=C(N(C)C)N(C)C)C(C)C)C(=O)NCC(=O)N[C@@H](CCC(=O)O)C(=O)N1CCC[C@H]1C(=O)N[C@@H](CCCNC(=N)N)C(=O)N1CCC[C@H]1C(=O)N1CCC[C@H]1C(=O)N[C@@H](CC(N)=O)C(=O)N1CCC[C@H]1C(=O)N[C@@H](CCCNC(=N)N)C(=O)N[C@@H](CC(C)C)C(=O)O` [Peptide G9E10N15] ({Orn(α-tetramethylguanidino)}-NNRPVYIGEPRPPNPRL-OH; C-terminus assumed), the “MIC, TSB” value is reported as >64 µM, the “MIC, LB” value is reported as >64 µM and the “MIC, RPMI/Serum” value is reported as >64 µM.

In the case of `CC[C@H](C)[C@H](NC(=O)[C@H](Cc1ccc(O)cc1)NC(=O)[C@@H](NC(=O)[C@@H]1CCCN1C(=O)[C@H](CCCNC(=N)N)NC(=O)[C@H](CC(N)=O)NC(=O)[C@H](CCCCN)NC(=O)[C@H](CCCN)N=C(N(C)C)N(C)C)C(C)C)C(=O)N[C@@H](CC(N)=O)C(=O)N[C@@H](CCC(N)=O)C(=O)N1CCC[C@H]1C(=O)N[C@@H](CCCNC(=N)N)C(=O)N[C@@H](CCC(=O)O)C(=O)N1CCC[C@H]1C(=O)N[C@@H](Cc1c[nH]cn1)C(=O)N1CCC[C@H]1C(=O)N[C@@H](CCCNC(=N)N)C(=O)N[C@@H](CC(C)C)C(=O)O` [Peptide K2N9E13] ({Orn(α-tetramethylguanidino)}-KNRPVYINQPREPHPRL-OH; C-terminus assumed), the “MIC, TSB” value is reported as >64 µM, the “MIC, LB” value is reported as >64 µM and the “MIC, RPMI/Serum” value is reported as >64 µM.

With `CC(C)C[C@H](NC(=O)[C@H](CCCNC(=N)N)NC(=O)[C@@H]1CCCN1C(=O)[C@H](Cc1c[nH]cn1)NC(=O)[C@@H]1CCCN1C(=O)[C@H](CO)NC(=O)[C@H](CCCNC(=N)N)NC(=O)[C@@H]1CCCN1C(=O)[C@@H](NC(=O)[C@H](CC(N)=O)NC(=O)[C@H](Cc1ccc(O)cc1)NC(=O)[C@H](Cc1ccc(O)cc1)NC(=O)[C@@H](NC(=O)[C@@H]1CCCN1C(=O)[C@H](CCCNC(=N)N)NC(=O)[C@H](CCCCN)NC(=O)[C@H](CC(N)=O)NC(=O)[C@H](CCCN)N=C(N(C)C)N(C)C)C(C)C)[C@@H](C)O)C(=O)O` [Peptide K3Y8N9T10S13] ({Orn(α-tetramethylguanidino)}-NKRPVYYNTPRSPHPRL-OH; C-terminus assumed) the “MIC, TSB” value was >64 µM, the “MIC, LB” value was >64 µM and the “MIC, RPMI/Serum” value was >64 µM.

`CC[C@H](C)[C@H](NC(=O)[C@H](Cc1ccc(O)cc1)NC(=O)[C@H](CCCCN)NC(=O)[C@@H]1CCCN1C(=O)[C@H](CCCNC(=N)N)NC(=O)[C@H](CC(N)=O)NC(=O)[C@H](CC(N)=O)NC(=O)[C@H](CCCN)N=C(N(C)C)N(C)C)C(=O)N1CCC[C@H]1C(=O)N[C@@H](CCSC)C(=O)N1CCC[C@H]1C(=O)N[C@@H](CCCNC(=N)N)C(=O)N1CCC[C@H]1C(=O)N1CCC[C@H]1C(=O)N[C@@H](Cc1c[nH]cn1)C(=O)N1CCC[C@H]1C(=O)N[C@@H](CCCNC(=N)N)C(=O)N[C@@H](CC(C)C)C(=O)O` [Peptide K6M10] ({Orn(α-tetramethylguanidino)}-NNRPKYIPMPRPPHPRL-OH; C-terminus assumed) was tested, and the “MIC values relative to wt Api” value (E. coli BL21, peptides from depletion selection) was “comparable to those of wt Api”, the “MIC, TSB” value was 0.5 µM (≈ 1.15 µg/mL) and the “MIC, LB” value was 8 µM (≈ 18.4 µg/mL). The “MIC, RPMI/Serum” value was 1 µM (≈ 2.3 µg/mL).

For `CC(C)C[C@H](NC(=O)[C@H](CCCNC(=N)N)NC(=O)[C@H](CC(C)C)NC(=O)[C@H](Cc1c[nH]cn1)NC(=O)[C@@H]1CCCN1C(=O)CNC(=O)[C@H](CC(C)C)NC(=O)[C@@H]1CCCN1C(=O)[C@H](CCC(N)=O)NC(=O)[C@@H]1CCCN1C(=O)[C@H](CC(C)C)NC(=O)[C@H](Cc1ccc(O)cc1)NC(=O)[C@@H](NC(=O)[C@@H]1CCCN1C(=O)[C@H](CCCNC(=N)N)NC(=O)[C@H](CC(N)=O)NC(=O)[C@H](CC(N)=O)NC(=O)[C@H](CCCN)N=C(N(C)C)N(C)C)C(C)C)C(=O)O` [Peptide L8L12G13L16] ({Orn(α-tetramethylguanidino)}-NNRPVYLPQPLGPHLRL-OH; C-terminus assumed), the “MIC, TSB” value was >64 µM, the “MIC, LB” value was >64 µM and the “MIC, RPMI/Serum” value was >64 µM.
